The subject of assay [1] is p62-dependent mitophagy. As to the kind of experiment: Luciferase-p62 clearance assay, stated for HDFs. In kind it is cell-based, human. The settings on record: 5 μM; HDFs. Here is the method: (§1) FIGS. 15A-15C show hydroxycinnamic acids (HCAs) tested in mitophagy assays in primary HDFs. […] 80,000 mixed aged Fibroblasts expressing the Su9-Halo-GFP reporter were treated for 48 h with the indicated HCAs. A change in the reporter excitation occurs because the GFP tag is quenched in the lysosome environment, indicating mitophagy.
To identify p62-dependent materials which increase mitophagy, a Luciferase-p62 Assay was established. This method provides an approach to measure the ability of a material to modulate p62-dependent mitophagy by using an inducible firefly luciferase-p62 (Fluc-p62) reporter cell system. In this assay, p62 levels are driven by doxycycline treatment. After levels increased, expression of Fluc-p62 is turned off by removal of doxycycline, materials are then added and assessed for how they affect clearance of Fluc-p62 protein, which is proportionate to cellular mitophagy rates (Kelly et al.). […]
Test materials including bioactive materials were screened in mouse embryonic fibroblasts (MEFs, Harada et al.) expressing the TET-inducible p62-fluc construct as previously described (Brown et al.). […] Subsequently, cells were treated with test materials for 48 hours in normal growth medium and analysed using ONE-Glo™+Tox Luciferase Reporter and Cell Viability Assay (Promega) by following the manufacturer's protocol.

Assay [2] deals with primary human dermal fibroblasts (HDFs). Kind of assay: Mitophagy assay, Su9-Halo-GFP reporter, fluorescence microscopy. The format is cell-based. How it is done: as §1
Primary human dermal fibroblasts (HDFs) were cultured in DMEM supplemented with 10 percent FBS, 100 units per milliliter penicillin/streptomycin, and 2 millimolar L-glutamine in a humidified atmosphere containing 5 percent carbon dioxide at 37 degrees Celsius. Stable expression of mt-mKeima was achieved through retroviral transduction (Kelly et al.). Cells stably expressing mt-mKeima were seeded in a 35 mm glass bottom dish (MatTek). The live-cell mt-Keima signal was obtained via widefield microscopy using the DMi8 and 2 filtersets to obtain the acidic (561 nm excitation, “red”) and pH-neutral (480 nm, “green”) mKeima signals. Using FIJI/ImageJ, a macro was applied to the mt-mKeima signal to extract mitolysosomes. […] Mitophagy events were determined as the number of puncta per cell. […] Fluorescence images were obtained using an LSM700 confocal microscope (Zeiss). The number of mitolysosomes (GFP-Halo+puncta) per cell was quantified using proprietary plugin in Fiji/ImageJ. […]

In assay [3] the test system is p62-dependent mitophagy. As to the kind of experiment: Luciferase-p62 assay (Fluc-p62 clearance) in mouse embryonic fibroblasts. The format is cell-based. Conditions: for Mean Luminescence: Luciferase-p62 assay, mouse embryonic fibroblasts (MEFs), compounds at 10 μM; for % Activity over baseline: percentage of Luciferase-p62 clearance relative to baseline (mean luminescence in the absence of doxycycline induction); for % Activity over baseline / % Activity relative to Rapamycin: MEFs, 10 μM; for % Activity relative to Rapamycin: percentage of activity relative to rapamycin tested in the same experiment at the same concentration. A digest of the protocol: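 MEFs with doxycycline-inducible Fluc-p62; after induction, doxycycline removed and cells treated 48 h with compounds at 10 μM. Fluc-p62 clearance, taken as mitophagy, read by ONE-Glo+Tox luciferase with viability. Vehicle (DMSO) as negative control; activity also expressed relative to rapamycin.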

Structures can show the parent of a compound that is named as a salt.

Consider `O=C(O)/C=C/c1ccc(O)cc1` [p-coumaric acid], for which the “p62-dependent mitophagy vs. untreated control cells” value in assay [1] is recorded as “significantly increases p62-dependent mitophagy”. In addition, the “mitophagy events by fluorescence microscopy” value in assay [2] (8 μM, 48 h, mixed aged fibroblasts, Su9-Halo-GFP reporter) was “increases mitophagy events”. The “increase of basal mitophagy levels, dose-response comparison with ferulic acid” value in assay [2] (0.1-8 μM, HDFs) is recorded as “outperforms an O-methylated form (ferulic acid)”.
Regarding `CC1(C)O[C@H]2CC(=O)OC[C@]23[C@H]2CC[C@@]4(C)[C@H](c5ccoc5)OC(=O)[C@H]5O[C@]54[C@]2(C)C(=O)C[C@@H]13` [Limonin], in assay [3], the “Mean Luminescence” value is recorded as 753.03, the “% Activity over baseline” value was found to be 53.46% and the “% Activity relative to Rapamycin” value is 96.33%.
With `CC[C@@H]1/C=C(\C)C[C@H](C)C[C@H](OC)[C@H]2O[C@@](O)(C(=O)C(=O)N3CCCC[C@H]3C(=O)O[C@H](/C(C)=C/[C@@H]3CC[C@@H](O)[C@H](OC)C3)[C@H](C)[C@@H](O)CC1=O)[C@H](C)C[C@@H]2OC` [Ascomycin(FK 520)], in assay [3], the “Mean Luminescence” value is recorded as 640.39, the “% Activity over baseline” value is given as 60.42% and the “% Activity relative to Rapamycin” value was 108.87%.
The corresponding values for `O=c1oc2cc(O)ccc2c2ccc(O)cc12` [Urolithin A] are 884.12, 45.36% and 81.73%.
With `CN(C)CCn1nnnc1SCC1=C(C(=O)O)N2C(=O)[C@@H](NC(=O)Cc3csc(N)n3)[C@H]2SC1` [Cefotiam hydrochloride], in assay [3], the “Mean Luminescence” value stood at 993.62, the “% Activity over baseline” value came to 38.59% and the “% Activity relative to Rapamycin” value worked out at 69.54%.
The corresponding values for `CC(=O)NCCc1c[nH]c2ccc(O)cc12` [N-Acetylserotonin] are 978.08, 39.55% and 71.27%.
The corresponding values for `CC(=O)CCc1ccc(O)cc1` [Raspberry ketone] are 696.39, 56.96% and 102.63%.
Consider `O=C1O[C@H]2[C@@H]3OC(=O)c4cc(O)c(O)c(O)c4-c4c(O)c(O)c5oc(=O)c6c(c(O)c(O)c7oc(=O)c4c5c76)-c4c(cc(O)c(O)c4O)C(=O)OC[C@H]3OC(O)[C@@H]2OC(=O)c2cc(O)c(O)c(O)c2-c2c1cc(O)c(O)c2O` (mixture of isomers) [Punicalagin], for which, in assay [3], the “Mean Luminescence” value was determined as 782.52, the “% Activity over baseline” value is 51.64% and the “% Activity relative to Rapamycin” value stood at 93.04%.
With `C[C@]12CC[C@@H]3c4ccc(O)cc4CC[C@H]3[C@@H]1CC[C@@H]2O` [Estradiol], in assay [3], the “Mean Luminescence” value came to 768.64, the “% Activity over baseline” value was found to be 52.50% and the “% Activity relative to Rapamycin” value came out at 94.59%.
As to `C[C@@H]1CC[C@H]2C(C)(C)[C@H]3C[C@@]12CC[C@@]3(C)O` [Cedrol], in assay [3], the “Mean Luminescence” value worked out at 850.22, the “% Activity over baseline” value came to 47.46% and the “% Activity relative to Rapamycin” value was found to be 85.50%.
Consider `COc1cc(O)c(CC=C(C)C)c(O)c1C(=O)/C=C/c1ccc(O)cc1` [Xanthohumol], for which, in assay [3], the “Mean Luminescence” value stood at 485.82, the “% Activity over baseline” value was found to be 69.98% and the “% Activity relative to Rapamycin” value worked out at 126.08%.
The corresponding values for Bleomycin Sulfate are 615.38, 61.97% and 111.65%.
Regarding `CCN(CC)c1ccc(/C=N/NC(=O)c2ccc(O)cc2)cc1` [DY131], in assay [3], the “Mean Luminescence” value amounted to 878.41, the “% Activity over baseline” value is on record as 45.71% and the “% Activity relative to Rapamycin” value was found to be 82.36%.
On to `C=CCNC1=C2C[C@@H](C)C[C@H](OC)[C@H](O)[C@@H](C)/C=C(\C)[C@H](OC(N)=O)[C@@H](OC)/C=C\C=C(/C)C(=O)NC(=CC1=O)C2=O` [17-AAG (KOS953)], for which, in assay [3], the “Mean Luminescence” value came to 299.07, the “% Activity over baseline” value was 81.52% and the “% Activity relative to Rapamycin” value stood at 146.87%.
Turning to `C[C@H](CC[C@@]1(O)O[C@H]2C[C@H]3[C@@H]4CC=C5C[C@@H](O[C@@H]6O[C@H](CO)[C@@H](O[C@@H]7O[C@@H](C)[C@H](O)[C@@H](O)[C@H]7O)[C@H](O)[C@H]6O[C@@H]6O[C@@H](C)[C@H](O)[C@@H](O)[C@H]6O)CC[C@]5(C)[C@H]4CC[C@]3(C)[C@H]2[C@@H]1C)CO[C@@H]1O[C@H](CO)[C@@H](O)[C@H](O)[C@H]1O` [Protodioscin], in assay [3], the “Mean Luminescence” value is recorded as 713.58, the “% Activity over baseline” value was 55.90% and the “% Activity relative to Rapamycin” value is given as 100.72%.
Regarding `Cc1cnc(C)cn1` [2,5-Dimethyl pyrazine], in assay [3], the “Mean Luminescence” value is listed as 842.32, the “% Activity over baseline” value amounted to 47.94% and the “% Activity relative to Rapamycin” value amounted to 86.38%.
For the compound `O=C(O)c1cccc(O)c1` [m-Hydroxybenzoic acid], in assay [3], the “Mean Luminescence” value worked out at 745.89, the “% Activity over baseline” value stood at 53.90% and the “% Activity relative to Rapamycin” value was 97.12%.
For the compound `NC(=O)Cc1ccccc1` [Compound 2-Phenylacetamide, 2-Phenylacetamide], in assay [3], the “Mean Luminescence” value was 861.95, the “% Activity over baseline” value was 46.73% and the “% Activity relative to Rapamycin” value was found to be 84.20%.
In the same order, the values of `COc1cccc2c1C(=O)c1c(O)c3c(c(O)c1C2=O)C[C@@](O)(C(=O)CO)C[C@@H]3O[C@H]1C[C@H](N)[C@H](O[C@@H]2CCCCO2)[C@H](C)O1` [Pirarubicin] are 978.32, 39.54% and 71.24%.
For `O=C(O)CCNC(=O)c1ccccc1` [Betamipron], the “Mean Luminescence” value in assay [3] is listed as 923.38.
For the compound `CCOC(=O)NCCCC(=O)NCCc1ccccc1` [Santacruzamate A (CAY10683)], in assay [3], the “Mean Luminescence” value is on record as 972.04, the “% Activity over baseline” value amounted to 39.93% and the “% Activity relative to Rapamycin” value is listed as 71.94%.
For the compound `COc1cc(C=O)cc(OC)c1O` [Syringaldehyde], in assay [3], the “Mean Luminescence” value is 896.55, the “% Activity over baseline” value worked out at 44.59% and the “% Activity relative to Rapamycin” value was found to be 80.34%.

The values above are taken from patent publication US20250381110A1, “SKIN CARE COMPOSITION AND METHOD OF USING THE SAME” (THE PROCTER & GAMBLE COMPANY, priority 2024, published 2025).
